Experimental data reported in publication PMC2848589, “Raltegravir Is a Potent Inhibitor of XMRV, a Virus Implicated in Prostate Cancer and Chronic Fatigue Syndrome” (PLoS ONE, 2010).
Read-outs that look alike come from different tables or passages of the source.

Key:
XMRV = XMRV replication in MCF-7 cells (viral release by RT activity in supernatant); type: cell-based; details: for activity against XMRV (in words): tested up to 100 µM, Figure 1; for EC50 / EC90: MCF7, 144 h; for EC50: read-out: XMRV in MCF-7 cells EC50; for EC90: read-out: XMRV in MCF-7 cells EC90
[1] = Cytotoxicity in MCF-7 cells (MTT / CellTiter 96 AQueous One); type: cell-based, human; details: human
Experimental: (§1) We tested a total of 45 compounds belonging to different classes of HIV-1 inhibitors, and a few inhibitors of viruses other than retroviruses, for their ability to inhibit XMRV replication in cultured cells. LNCaP and MCF-7 cells were chosen for their ability to support robust in vitro replication of XMRV. […] To determine if a reduction in viral release might be due to toxicity of the compound and not due to specific antiretroviral activity, cellular morphology was monitored every 24 h by microscopic examination, and an MTT [3-(4,5-dimethylthiazol-2-yl)-2,5-diphenyltetrazolium bromide] colorimetric assay was used to measure potential cytotoxicity produced by the compounds. Supernatants were collected every 24 h and assayed for viral release by measuring RT activity. […] For comparison purposes, all compounds evaluated in these studies were also tested against HIV-1LAI in primary human lymphocytes.
(§2) Each well was carefully monitored for signs of cellular toxicity due to the inhibitors by microscopic observation every 24 h. In addition, cell viability was measured using the CellTiter 96 AQueous One Solution cell proliferation assay according to the manufacturer (Promega, Madison, Wis). Viral release from the cells was assayed by measuring RT activity in the supernatant. For this, supernatant from each well was collected every 24 h and frozen at −20°C until it was analyzed by RT assay for viral release as described previously. In brief, oligo(dT)·poly(rA) primer-template assays were performed in the presence of radiolabeled [α-^32P]dTTP and Mn^2+. After incubating the viral supernatants with the RT reaction mix for 1 h at 37°C, samples were spotted onto DE81 DEAE cellulose paper (Whatman) and unincorporated label washed away with 2× SSC (1× SSC = 0.15 M NaCl and 0.015 M sodium citrate). […] Inhibition of viral release as measured on day 6 after inoculation was averaged over 3–5 experiments and plotted. The antiviral EC50 and cytotoxic concentrations (CC50,) was determined from the concentration–response curve using the median effect method. HIV-1 replication assays were performed as described previously using peripheral blood mononuclear cells (PBMC) obtained from the American Red Cross, Atlanta, GA, that were stimulated with phytohemagglutinin (PHA) for 72 hr.

HIV-1LAI = assay: HIV-1 replication in PHA-stimulated peripheral blood mononuclear cells; type: cell-based; details: Human immunodeficiency virus 1, PBMC; for EC50: read-out: HIV-1 in PBM cells EC50; for EC90: read-out: HIV-1 in PBM cells EC90
Experimental: as §1, §2

[2] = Cytotoxicity in PBM cells; type: cell-based; details: human, peripheral blood mononuclear (PBM) cells, read-out: HIV-1 in PBM cells CC50
Experimental: as §2

[3] = MCF-7 cells, read-out: XMRV in MCF-7 cells CC50
[4] = XMRV-infected MCF-7 cells, RT activity in supernatant, day 6

Structure (SMILES)	activity against XMRV (in words) (XMRV)	EC50 (XMRV)	EC90 (XMRV)	CC50 [1]	EC50 (HIV-1LAI)	EC90 (HIV-1LAI)	CC50 [2]	CC50 [1, 3]	EC50 (XMRV; [4])	therapeutic index (TI, the ratio of CC50/EC50) (XMRV; XMRV, MCF-7 cells)
CC(C)=CCN1Cc2c(Cl)ccc3[nH]c(=S)n(c23)C[C@@H]1C [TIBO analog, (4S)-8-Chloro-4-methyl-5-(3-methylbut-2-enyl)-3,4,5,6-tetrahydro-1H-[1], [3]diazepino[4,5,6-cd]indole-2(2aH)-thione]	did not demonstrate any major activity									
CC(C)(C)NC(=O)[C@@H]1C[C@@H]2CCCC[C@@H]2CN1C[C@@H](O)[C@H](Cc1ccccc1)NC(=O)[C@H](CC(N)=O)NC(=O)c1ccc2ccccc2n1 [Saquinavir]	essentially ineffective	> 100 µM	> 100 µM	53.7 µM	0.0064 µM	0.021 µM	26.7 µM			
CCN(CC)CCCC(C)Nc1ccnc2cc(Cl)ccc12 (centres unmarked) [Chloroquine]		56.9 µM	> 100 µM		9 µM	21.6 µM				
Nc1nc(=O)n([C@@H]2CS[C@H](CO)O2)cc1F [Emtricitabine [(-)-FTC], Emtricitabine]	essentially inactive	> 100 µM	> 100 µM	> 100 µM	0.0066 µM	0.052 µM	> 100 µM			
CN(C)c1ccc2nc3ccc(=[N+](C)C)cc-3sc2c1 [Methylene blue]		0.42 µM	2.7 µM	7.2 µM	0.024 µM	0.5 µM	6.1 µM			
Nc1ccn([C@H]2CC[C@@H](CO)O2)c(=O)n1 [Zalcitabine (ddC), Zalcitabine]		> 100 µM	> 100 µM	89.8 µM	0.044 µM	0.31 µM	> 100 µM			
NC(=O)c1ncn([C@@H]2O[C@H](CO)[C@@H](O)[C@H]2O)n1 [Ribavirin (RBV), Ribavirin]		53 µM	> 100 µM	74.1 µM	6.4 µM	> 100 µM	> 100 µM			
Cc1cn([C@@H]2C[C@@H](O)[C@H](CO)O2)c(=O)[nH]c1=O [Telbivudine (LdT), Telbivudine]		> 100 µM	> 100 µM	88.3 µM	> 100 µM	> 100 µM	> 100 µM			
Nc1nc(NC2CC2)c2ncn([C@H]3C=C[C@@H](CO)C3)c2n1 [Abacavir]		> 100 µM	> 100 µM		0.17 µM	1.7 µM	92.9 µM	92.6 µM		
CC(O)(CS(=O)(=O)c1ccc(F)cc1)C(=O)Nc1ccc(C#N)c(C(F)(F)F)c1 (centres unmarked) [Bicalutamide]		53 µM	63.2 µM	8.2 µM						
Nc1nc2c(ncn2CCC(CO)CO)c(=O)[nH]1 [Penciclovir (PCV), Penciclovir]		> 100 µM	> 100 µM	98.1 µM	> 100 µM	> 100 µM	> 100 µM			
C=C1[C@H](CO)[C@@H](O)C[C@@H]1n1cnc2c(=O)[nH]c(N)nc21 [Entecavir (ETV), Entecavir]		> 100 µM	> 100 µM	93.3 µM	2.1 µM	16.3 µM	25.2 µM			
O=c1[nH]cnc2c1ncn2[C@H]1CC[C@@H](CO)O1 [Videx (DDI), Videx]	essentially inactive	> 100 µM	> 100 µM	> 100 µM	0.29 µM	2.2 µM	> 100 µM			
Nc1nc2c(ncn2COCCO)c(=O)[nH]1 [Acyclovir (ACV), Acyclovir]		> 100 µM	> 100 µM	77.6 µM	> 100 µM	> 100 µM	> 100 µM			
CCC[C@@]1(CCc2ccccc2)CC(O)=C([C@H](CC)c2cccc(NS(=O)(=O)c3ccc(C(F)(F)F)cn3)c2)C(=O)O1 [Tipranavir]	essentially ineffective	> 100 µM	> 100 µM		0.035 µM	0.17 µM	> 100 µM	75.6 µM		
Nc1ccn([C@@H]2CS[C@H](CO)O2)c(=O)n1 [Lamivudine (3TC), Lamivudine]	essentially inactive	> 100 µM	> 100 µM	> 100 µM	0.085 µM	0.36 µM	41.9 µM			
O=C(O)P(=O)(O)O [Foscarnet (PFA), Foscarnet]		41.9 µM	> 100 µM		26.9 µM	71.9 µM	> 100 µM	> 100 µM		
Nc1ncnc2c1ncn2[C@@H]1O[C@H](CO)[C@@H](O)[C@@H]1O [Vidarabine (ara-A), Vidarabine]		4.4 µM	> 100 µM	50.5 µM	30.6 µM	> 100 µM	> 100 µM			
CC(C)CN(C[C@@H](O)[C@H](Cc1ccccc1)NC(=O)O[C@H]1CO[C@H]2OCC[C@H]21)S(=O)(=O)c1ccc(N)cc1 [Darunavir]	essentially ineffective	> 100 µM	> 100 µM		0.0036 µM	0.0065 µM				
Nc1nc(N)c2ncn([C@H]3CO[C@@H](CO)O3)c2n1 [Amdoxovir (DAPD, AMDX), Amdoxovir]	essentially inactive	> 100 µM	> 100 µM		0.83 µM	4.8 µM	> 100 µM	> 100 µM		
CC(C)c1nc(CN(C)C(=O)N[C@H](C(=O)N[C@@H](Cc2ccccc2)C[C@H](O)[C@H](Cc2ccccc2)NC(=O)OCc2cncs2)C(C)C)cs1 [Ritonavir]			> 100 µM		0.15 µM	0.4 µM			76.4 µM	
Cc1cccc(C)c1OCC(=O)N[C@@H](Cc1ccccc1)[C@@H](O)C[C@H](Cc1ccccc1)NC(=O)[C@H](C(C)C)N1CCCNC1=O [Lopinavir]			> 100 µM	8.5 µM	0.011 µM	0.029 µM	36 µM		72.2 µM	
CC(C)(C)NC(=O)[C@@H]1CN(Cc2cccnc2)CCN1C[C@@H](O)C[C@@H](Cc1ccccc1)C(=O)N[C@H]1c2ccccc2C[C@H]1O [Indinavir]	essentially ineffective	> 100 µM	> 100 µM	69.9 µM	0.018 µM	0.064 µM	> 100 µM			
COC(=O)N[C@H](C(=O)N[C@@H](Cc1ccccc1)[C@@H](O)CN(Cc1ccc(-c2ccccn2)cc1)NC(=O)[C@@H](NC(=O)OC)C(C)(C)C)C(C)(C)C [Atazanavir]			> 100 µM		0.0067 µM	0.022 µM	27.2 µM	40.7 µM	64.8 µM	
CC(=O)Oc1ccccc1C(=O)O [Aspirin]		> 100 µM	> 100 µM		> 100 µM	> 100 µM	> 100 µM	92.2 µM		
C[C@H](Cn1cnc2c(N)ncnc21)OCP(=O)(O)O [Tenofovir (TNV), Tenofovir]	ineffective	82.9 µM	> 100 µM		0.88 µM	6.6 µM	> 100 µM	79.6 µM		
CC(C)CN(C[C@@H](O)[C@H](Cc1ccccc1)NC(=O)O[C@H]1CCOC1)S(=O)(=O)c1ccc(N)cc1 [Amprenavir]			> 100 µM		0.027 µM	0.1 µM	> 100 µM	94.1 µM	68 µM	
Nc1nc(O)c2ncn(COC(CO)CO)c2n1 [Ganciclovir (GCV), Ganciclovir]		> 100 µM	> 100 µM	> 100 µM	> 100 µM	> 100 µM	> 100 µM			
O=c1[nH]c(=O)n([C@H]2C[C@H](O)[C@@H](CO)O2)cc1I [5-Iodo-2'-deoxyuridine (IdUrd), 5-Iodo-2'-deoxyuridine]		2.2 µM	> 100 µM	7.3 µM	25.1 µM	38.9 µM	85.1 µM			low
